Reference: US20080131406A1, “Angiotensin I Derivatives” (NATIONAL UNVERSITY OF SINGAPORE, priority 2005, published 2008)

Legend:
[1] = system: neointima formation in catheter-injured carotid artery; assay: Neointima formation after balloon catheter injury of the left carotid artery in rats; type: in vivo, Sprague Dawley (SD) rats; conditions: for % of Lumen Occlusion by Neointima (in catheter-injured carotid artery): mean ± SEM, 6 rats
From the text: SD rats were subjected to left carotid artery injury by the balloon technique according to the method described by Indolfi et al (Circulation, 92:1230-1235 (1995)). In this procedure, rats were anesthetized with chloral hydrate (0.35 g/kg) and a balloon catheter (2F Fogarty, Edwards Laboratories) was introduced through the left external carotid artery into the common carotid artery. The balloon was inflated to a pressure of 2.2 kg/cm^2 by compressed carbogen gas mixture (95% O2 and 5% CO2) and passed three times (three cycles) along the common carotid artery. The catheter was removed, the left external carotid artery was ligated, and the wound was closed. Formation of neointima in the catheter-injured carotid artery occurred and slowed considerably after 14 days (Clowes and Clowes, Lab. Invest., 52:611-616 (1985)). The right common carotid artery was left intact and served as the control artery.
Following the surgery, each animal was placed in a cage. The animals had access to water and rat chow ad libitum. The animals were randomly divided into the control group and treatment group. Each group consisted of 6 animals. The treatment group was orally administered various doses of angiotensin IV (60-360 nmoles/kg/day or 46.5-279 μg/kg/day) dissolved in 0.5 ml saline for 13 days commencing on the day of surgery. Control animals were balloon catheterized animals that were administered saline instead of the angiotensin IV solution.
On the fourteenth day following balloon catheterization, animals were anesthetized as before and both the left and right common arteries of each rat were fixed by perfusion at 120 mm Hg with 100 ml of saline followed by 250 ml of 0.1 M phosphate buffer (pH 7.4) containing 4% paraformaldehyde and 1% glutaralaldehyde and processed for paraffin embedment. Sections of 10 μm thickness were prepared and stained with toluidine blue. Twenty of such sections were cut from the midportion of the artery towards the distal end and used for morphometric evaluation of neointima formation. The area of the medial smooth muscle cells, lumen, and neointima of each section was morphometrically quantitated using an image analysis system consisting of a BX40 light microscope (Olympus, Japan) fitted with a KY-F55B color video camera (JVC, Japan) and a Pentium 166 MHz/MMX microcomputer (Datamini, Singapore) installed with an Image Pro Plus 3.0 System (Media Cybernetics, USA) for Windows 95™. The extent of neointima formation was expressed as a percentage of occlusion of the lumen by the neointima.

[2] = system: experimentally-induced cardiac hypertrophic rats; assay: Cardiac hypertrophy induced by abdominal aorta coarctation in rats; type: in vivo, Sprague Dawley (SD) rats; conditions: for Hypertrophy Index (ventricle weight in mg/body weight in g): aorta-coarcted rats, mean ± SEM, 10 rats
Experimental: The experimental protocol for induction of cardiac hypertrophy in rats was carried out as described by Everett et al (Hypertension, 23:587-592 (1994)). In this procedure, each rat was anaesthetized with 7% w/v chloral hydrate (0.35 g/kg, intraperitoneally). An incision was made in the ventral abdominal wall to access the suprarenal portion of the abdominal aorta. This portion of the abdominal aorta was dissected free and a blunt 23-guage needle was placed adjacent to the aorta. A ligature was placed around the blunt needle and the aorta. The blunt needle was then removed, leaving the aorta constricted to the size of the needle. The resulting coarctation resisted the normal flow of blood from the heart to the lower portion of the body and placed an extra load on the heart. This extra load causes hypertrophy of the heart, especially the left ventricle.
Following surgery, each animal was placed in a cage. The animals had access to water and rat chow ad libitum. The animals were randomly divided into the control group and treatment group. Each group consisted of 10 animals. The treatment group was orally administered various doses of angiotensin IV (95-380 nmoles/kg/day or 74-294 μg/kg/day) dissolved in 0.5 ml saline for four days commencing on the day of surgery. Control animals with coarcted abdominal aorta were administered saline instead of the angiotensin IV solution. Sham animals were animals that underwent the same surgical operations but their aortas were not coarcted.
On the fifth day following surgery, animals were anaesthetised as before. The heart of each animal was then excised, the ventricles dissected and the weight of the ventricles was determined. The index of the ventricle weight (in mg) over the body weight of the animal (in g) was taken as the index of hypertrophy. For sham-operated animals the index was around 2.6, for aorta-coarcted animas the index was above 3.7.
Data were expressed as mean ±SEM. Significant differences were determined by one-way ANOVA and post hoc Newman Kleuf test. The accepted level of significance was p<0.05. […] The effect was dose-dependent and significant anti-cardiac hypertrophic action was brought about by an oral dose of 190 nmoles/kg/day (or 147 μg/kg/day).

## CC[C@H](C)[C@H](NC(=O)[C@H](Cc1ccc(O)cc1)NC(=O)[C@@H](N)C(C)C)C(=O)N[C@@H](Cc1cnc[nH]1)C(=O)N1CCC[C@H]1C(=O)N[C@@H](Cc1ccccc1)C(=O)O [angiotensin IV]
[1]; 60 nmole/kg/day oral for 13 days
  % of Lumen Occlusion by Neointima (in catheter-injured carotid artery): 52 ± 5%
[1]; 120 nmole/kg/day oral for 13 days
  % of Lumen Occlusion by Neointima (in catheter-injured carotid artery): 48 ± 1%
[1]; 240 nmole/kg/day oral for 13 days, significantly different from Control (p < 0.05)
  % of Lumen Occlusion by Neointima (in catheter-injured carotid artery): *43 ± 2%
[1]; 360 nmole/kg/day oral for 13 days, significantly different from Control (p < 0.05)
  % of Lumen Occlusion by Neointima (in catheter-injured carotid artery): *44 ± 2%
[1]; oral for 13 days, action dose-dependent, or 186 μg/kg/day
  oral dose bringing about maximum anti-neointima action: 240 nmol/kg/day
[1]; oral, 13 days, catheter-injured carotid artery
  effect on the thickness of the medial muscle layer: no significant effect
[2]; 95 nmole/kg/day oral for 4 days
  Hypertrophy Index (ventricle weight in mg/body weight in g): 3.73 ± 0.04
[2]; 190 nmole/kg/day oral for 4 days, significantly different from Control (p < 0.05)
  Hypertrophy Index (ventricle weight in mg/body weight in g): *3.23 ± 0.07
[2]; 380 nmole/kg/day oral for 4 days, significantly different from Control (p < 0.05)
  Hypertrophy Index (ventricle weight in mg/body weight in g): *3.40 ± 0.07
[2]; oral, 4 days, effect dose-dependent, or 147 μg/kg/day
  oral dose bringing about significant anti-cardiac hypertrophic action: 190 nmol/kg/day
